Experimental data from paper PMC5218480 (PLoS ONE, 2017).

System: MV-4-11 cells
Test: Gene expression microarray analysis (Affymetrix PrimeView) and GSEA
Type: cell-based, human
Set-up: RFU PODN (11730768_x_at) / Fold change /veh PODN (11730768_x_at) / RFU LINC00158 (11744669_a_at) / Fold change /veh LINC00158 (11744669_a_at) / RFU DUSP10 (11751237_a_at) / Fold change /veh DUSP10 (11751237_a_at) / RFU ID3 (11757404_x_at) / Fold change /veh ID3 (11757404_x_at) / RFU PLEKHG5 (11737974_s_at) / Fold change /veh PLEKHG5 (11737974_s_at) / RFU LRRC4B (11730491_at) / Fold change /veh LRRC4B (11730491_at) / RFU GIMAP4 (11747438_a_at) / Fold change /veh GIMAP4 (11747438_a_at) / RFU KRT8 (11758183_x_at) / Fold change /veh KRT8 (11758183_x_at) / RFU CNN1 (11734310_a_at) / Fold change /veh CNN1 (11734310_a_at) / RFU VPS37D (11726825_at) / Fold change /veh VPS37D (11726825_at) / RFU C10orf10 (11716522_x_at) / Fold change /veh C10orf10 (11716522_x_at) / RFU KIR2DL2 /// KIR2DL4 /// KIR2DL5A /// KIR2DL5B /// KIR2DS1 /// KIR2DS2 /// KIR2DS3 /// KIR2DS4 /// KIR3DL3 /// KIR3DL3 /// KIR3DS1 (11738374_at) / Fold change /veh KIR2DL2 /// KIR2DL4 /// KIR2DL5A /// KIR2DL5B /// KIR2DS1 /// KIR2DS2 /// KIR2DS3 /// KIR2DS4 /// KIR3DL3 /// KIR3DL3 /// KIR3DS1 (11738374_at) / RFU C1QL1 (11718748_at) / Fold change /veh C1QL1 (11718748_at) / RFU TMPRSS4 (11747572_a_at) / Fold change /veh TMPRSS4 (11747572_a_at) / RFU HAMP (11756126_x_at) / Fold change /veh HAMP (11756126_x_at) / RFU RNFT2 (11725882_a_at) / Fold change /veh RNFT2 (11725882_a_at) / RFU NR4A2 (11747474_a_at) / Fold change /veh NR4A2 (11747474_a_at) / RFU ABCC12 (11746883_a_at) / Fold change /veh ABCC12 (11746883_a_at) / RFU TMEM136 (11760407_x_at) / Fold change /veh TMEM136 (11760407_x_at) / RFU CLDN22 /// WWC2 (11732394_at) / Fold change /veh CLDN22 /// WWC2 (11732394_at) / RFU HLA-DPB1 (11760878_x_at) / Fold change /veh HLA-DPB1 (11760878_x_at) / RFU SPINT1 (11716480_a_at) / Fold change /veh SPINT1 (11716480_a_at) / RFU GAP43 (11754022_s_at) / Fold change /veh GAP43 (11754022_s_at) / RFU A4GNT (11735810_at) / Fold change /veh A4GNT (11735810_at) / RFU PRB3 (11715151_x_at) / Fold change /veh PRB3 (11715151_x_at) / RFU TUBB4B (11761932_at) / Fold change /veh TUBB4B (11761932_at) / RFU CAPN14 (11732068_a_at) / Fold change /veh CAPN14 (11732068_a_at) / RFU TMCC2 (11721928_a_at) / Fold change /veh TMCC2 (11721928_a_at) / RFU IRGQ (11745062_a_at) / Fold change /veh IRGQ (11745062_a_at) / RFU FAM174B (11720279_a_at) / Fold change /veh FAM174B (11720279_a_at) / RFU TMPRSS4 (11748680_a_at) / Fold change /veh TMPRSS4 (11748680_a_at) / RFU FAM212B (11763350_a_at) / Fold change /veh FAM212B (11763350_a_at) / RFU PLEKHG5 (11743358_a_at) / Fold change /veh PLEKHG5 (11743358_a_at) / RFU ZSCAN30 (11745921_a_at) / Fold change /veh ZSCAN30 (11745921_a_at) / RFU CMKLR1 (11741424_a_at) / Fold change /veh CMKLR1 (11741424_a_at) / RFU LOC101060620 /// MAPK8IP1 (11723275_at) / Fold change /veh LOC101060620 /// MAPK8IP1 (11723275_at) / RFU SPTSSB (11747773_x_at) / Fold change /veh SPTSSB (11747773_x_at) / RFU PRSS12 (11739890_at) / Fold change /veh PRSS12 (11739890_at) / RFU BIN1 (11741810_x_at) / Fold change /veh BIN1 (11741810_x_at) / RFU WNT11 (11732464_a_at) / Fold change /veh WNT11 (11732464_a_at) / RFU C10orf10 (11716521_a_at) / Fold change /veh C10orf10 (11716521_a_at) / RFU C5orf56 (11738089_at) / Fold change /veh C5orf56 (11738089_at) / RFU CYB561 (11721691_x_at) / Fold change /veh CYB561 (11721691_x_at) / RFU ANKRD19P (11752326_a_at) / Fold change /veh ANKRD19P (11752326_a_at) / RFU OR2T12 /// OR2T33 /// OR2T8 (11738714_s_at) / Fold change /veh OR2T12 /// OR2T33 /// OR2T8 (11738714_s_at) / RFU VCAN (11748164_a_at) / Fold change /veh VCAN (11748164_a_at) / RFU JSRP1 (11732532_at) / Fold change /veh JSRP1 (11732532_at) / RFU KRTAP10-11 (11738290_x_at) / Fold change /veh KRTAP10-11 (11738290_x_at) / RFU MYO3A (11730013_a_at) / Fold change /veh MYO3A (11730013_a_at) / RFU EBF3 (11725865_a_at) / Fold change /veh EBF3 (11725865_a_at) / RFU CAMK2N1 (11719241_x_at) / Fold change /veh CAMK2N1 (11719241_x_at) / RFU C5orf56 (11738088_a_at) / Fold change /veh C5orf56 (11738088_a_at) / RFU OLFML3 (11715873_a_at) / Fold change /veh OLFML3 (11715873_a_at) / RFU LOC100653217 /// NTM (11731650_a_at) / Fold change /veh LOC100653217 /// NTM (11731650_a_at) / RFU MAPK11 (11762145_a_at) / Fold change /veh MAPK11 (11762145_a_at) / RFU FIZ1 (11724087_x_at) / Fold change /veh FIZ1 (11724087_x_at) / RFU OASL (11726364_x_at) / Fold change /veh OASL (11726364_x_at) / RFU SOX15 (11748057_x_at) / Fold change /veh SOX15 (11748057_x_at) / RFU CD79A (11719716_a_at) / Fold change /veh CD79A (11719716_a_at) / RFU HIST1H1D (11736915_at) / Fold change /veh HIST1H1D (11736915_at) / RFU CASKIN2 (11723855_a_at) / Fold change /veh CASKIN2 (11723855_a_at) / RFU LOC730098 (11760151_x_at) / Fold change /veh LOC730098 (11760151_x_at) / RFU OR4N2 (11742367_at) / Fold change /veh OR4N2 (11742367_at) / RFU PRRT2 (11749266_a_at) / Fold change /veh PRRT2 (11749266_a_at) / RFU SNX32 (11753110_a_at) / Fold change /veh SNX32 (11753110_a_at) / RFU CDHR5 (11726645_a_at) / Fold change /veh CDHR5 (11726645_a_at) / RFU RCAN1 (11760418_a_at) / Fold change /veh RCAN1 (11760418_a_at) / RFU FAM167A (11723789_a_at) / Fold change /veh FAM167A (11723789_a_at) / RFU FAM26E (11764081_at) / Fold change /veh FAM26E (11764081_at) / RFU ISYNA1 (11749810_s_at) / Fold change /veh ISYNA1 (11749810_s_at) / RFU ACY1 (11761880_at) / Fold change /veh ACY1 (11761880_at) / RFU 11764098_at / Fold change /veh 11764098_at / RFU SAMD14 (11745864_x_at) / Fold change /veh SAMD14 (11745864_x_at) / RFU NPB (11741838_a_at) / Fold change /veh NPB (11741838_a_at) / RFU TMPRSS6 (11731388_a_at) / Fold change /veh TMPRSS6 (11731388_a_at) / RFU KRTAP10-2 (11738614_at) / Fold change /veh KRTAP10-2 (11738614_at) / RFU ARHGAP8 /// PRR5-ARHGAP8 (11727945_x_at) / Fold change /veh ARHGAP8 /// PRR5-ARHGAP8 (11727945_x_at) / RFU KRTAP5-7 /// NADSYN1 (11734609_at) / Fold change /veh KRTAP5-7 /// NADSYN1 (11734609_at) / RFU RASL12 (11751679_a_at) / Fold change /veh RASL12 (11751679_a_at) / RFU CDKN2B (11736163_a_at) / Fold change /veh CDKN2B (11736163_a_at) / RFU PRF1 (11729649_at) / Fold change /veh PRF1 (11729649_at) / RFU, ZNF638 /// ZNF638-IT1 / Fold change vs veh, ZNF638 /// ZNF638-IT1 / RFU, PANK3 / Fold change vs veh, PANK3 / RFU, SH3YL1 / Fold change vs veh, SH3YL1 / RFU, ZEB2 / Fold change vs veh, ZEB2 / RFU, NRIP1 / Fold change vs veh, NRIP1 / RFU, PTTG1IP / Fold change vs veh, PTTG1IP / RFU, CAPN2 / Fold change vs veh, CAPN2 / RFU, MED14 / Fold change vs veh, MED14 / RFU, SNORA58 / Fold change vs veh, SNORA58 / RFU, C1orf63 / Fold change vs veh, C1orf63 / RFU, LRRFIP1 / Fold change vs veh, LRRFIP1 / RFU, NDUFAF7 / Fold change vs veh, NDUFAF7 / RFU, SLC12A2 / Fold change vs veh, SLC12A2 / RFU, IBTK / Fold change vs veh, IBTK / RFU, ESF1 / Fold change vs veh, ESF1 / Fold change vs veh, TMEM50B / RFU, TAOK1 / Fold change vs veh, TAOK1 / RFU, ACBD3 / Fold change vs veh, ACBD3 / RFU, TMA16 / Fold change vs veh, TMA16 / RFU, RWDD3 / Fold change vs veh, RWDD3 / RFU, BCAT1 / Fold change vs veh, BCAT1 / RFU, EDEM3 / Fold change vs veh, EDEM3 / RFU, TMEM33 / Fold change vs veh, TMEM33 / RFU, WDR75 / Fold change vs veh, WDR75 / RFU, AHCTF1 / Fold change vs veh, AHCTF1 / RFU, TFRC / Fold change vs veh, TFRC / RFU, ZDHHC17 / Fold change vs veh, ZDHHC17 / RFU, NOM1 / Fold change vs veh, NOM1 / RFU, ARL8B / Fold change vs veh, ARL8B / RFU, ZBTB11 / Fold change vs veh, ZBTB11 / RFU, TAMM41 / Fold change vs veh, TAMM41 / RFU, KIAA1704 /// LOC100996395 / Fold change vs veh, KIAA1704 /// LOC100996395 / RFU, ING1 / Fold change vs veh, ING1 / RFU, TRMT61B / Fold change vs veh, TRMT61B / RFU, FUBP3 / Fold change vs veh, FUBP3 / RFU, TP53 / Fold change vs veh, TP53 / RFU, TNKS2 / Fold change vs veh, TNKS2 / RFU, ZFP14 / Fold change vs veh, ZFP14 / RFU, ACTR2 / Fold change vs veh, ACTR2 / RFU, PPP3R1 / Fold change vs veh, PPP3R1 / RFU, PIK3R1 / Fold change vs veh, PIK3R1 / RFU, HNRNPA1 / Fold change vs veh, HNRNPA1 / RFU, RNF170 / Fold change vs veh, RNF170 / RFU, ZNF28 / Fold change vs veh, ZNF28 / RFU, RNGTT / Fold change vs veh, RNGTT / RFU, OGT / Fold change vs veh, OGT / RFU, BRD1 / Fold change vs veh, BRD1 / RFU, MARS / Fold change vs veh, MARS / RFU, ZNF655 / Fold change vs veh, ZNF655 / RFU, FAHD1 / Fold change vs veh, FAHD1 / RFU, BDP1 / Fold change vs veh, BDP1 / RFU, LRRCC1 / Fold change vs veh, LRRCC1 / RFU, ARID1A / Fold change vs veh, ARID1A / RFU, ZNF146 / Fold change vs veh, ZNF146 / RFU, ZNF330 / Fold change vs veh, ZNF330 / RFU, GPN3 / Fold change vs veh, GPN3 / RFU, C9orf123 / Fold change vs veh, C9orf123 / RFU, N4BP2L2 / Fold change vs veh, N4BP2L2 / RFU, ARFIP1 / Fold change vs veh, ARFIP1 / RFU, FAM179B / Fold change vs veh, FAM179B / RFU, BCL10 / Fold change vs veh, BCL10 / RFU, UHRF1BP1L / Fold change vs veh, UHRF1BP1L / RFU, BET1 / Fold change vs veh, BET1 / RFU, CNOT2 / Fold change vs veh, CNOT2 / RFU, ZNF268 / Fold change vs veh, ZNF268 / Fold change vs veh, ZNF507 / RFU, DGCR2 / Fold change vs veh, DGCR2 / RFU, WDSUB1 / Fold change vs veh, WDSUB1 / Fold change vs veh, HSP90B1 /// MIR3652 / RFU, ADSS / Fold change vs veh, ADSS / RFU, GK / Fold change vs veh, GK / RFU, ZNF148 / Fold change vs veh, ZNF148 / RFU, TAF9 / Fold change vs veh, TAF9 / RFU, SLC1A5 / Fold change vs veh, SLC1A5 / RFU, SLMO2 / Fold change vs veh, SLMO2 / RFU, ABCC4 / Fold change vs veh, ABCC4 / RFU, LOC101060439 /// RAP1B / Fold change vs veh, LOC101060439 /// RAP1B / RFU, RFX7 / Fold change vs veh, RFX7 / RFU, GTPBP10 / Fold change vs veh, GTPBP10 / RFU, CNEP1R1 / Fold change vs veh, CNEP1R1 / RFU, BIVM-ERCC5 /// ERCC5 / Fold change vs veh, BIVM-ERCC5 /// ERCC5 / RFU, ILF3 / Fold change vs veh, ILF3 / RFU 11762660_at / Fold change /veh 11762660_at / RFU VCAN (11757783_s_at) / Fold change /veh VCAN (11757783_s_at) / RFU DDX43 (11728927_at) / Fold change /veh DDX43 (11728927_at) / RFU KRT8 (11758188_x_at) / Fold change /veh KRT8 (11758188_x_at) / RFU NKD1 (11759106_at) / Fold change /veh NKD1 (11759106_at) / RFU SRD5A1 (11742802_a_at) / Fold change /veh SRD5A1 (11742802_a_at) / RFU TPSAB1 /// TPSB2 (11721975_s_at) / Fold change /veh TPSAB1 /// TPSB2 (11721975_s_at) / RFU GSTM3 (11746129_a_at) / Fold change /veh GSTM3 (11746129_a_at) / RFU IL23R (11737362_x_at) / Fold change /veh IL23R (11737362_x_at) / RFU TMEM51 (11727254_a_at) / Fold change /veh TMEM51 (11727254_a_at) / RFU PIWIL2 (11732686_x_at) / Fold change /veh PIWIL2 (11732686_x_at) / RFU ORM1 (11744905_x_at) / Fold change /veh ORM1 (11744905_x_at) / RFU CCDC152 (11743942_at) / Fold change /veh CCDC152 (11743942_at) / RFU ECM1 (11717891_a_at) / Fold change /veh ECM1 (11717891_a_at) / RFU IL23R (11748794_a_at) / Fold change /veh IL23R (11748794_a_at) / RFU TNFAIP8L3 (11732012_x_at) / Fold change /veh TNFAIP8L3 (11732012_x_at) / RFU MBOAT4 (11741988_at) / Fold change /veh MBOAT4 (11741988_at) / RFU 11764193_at / Fold change /veh 11764193_at / RFU TMEM53 (11763286_at) / Fold change /veh TMEM53 (11763286_at) / RFU MAGEB2 (11727129_at) / Fold change /veh MAGEB2 (11727129_at) / RFU TMEM200A (11744735_a_at) / Fold change /veh TMEM200A (11744735_a_at) / RFU CCDC152 (11751479_a_at) / Fold change /veh CCDC152 (11751479_a_at) / RFU FAM211A (11726209_a_at) / Fold change /veh FAM211A (11726209_a_at) / RFU RGS16 (11746705_a_at) / Fold change /veh RGS16 (11746705_a_at) / RFU VCAN (11755009_s_at) / Fold change /veh VCAN (11755009_s_at) / RFU RHOB (11743442_s_at) / Fold change /veh RHOB (11743442_s_at) / RFU RGS16 (11720943_a_at) / Fold change /veh RGS16 (11720943_a_at) / RFU RGS16 (11720944_at) / Fold change /veh RGS16 (11720944_at) / RFU, VPS4B / Fold change vs veh, VPS4B / RFU, CREB1 / Fold change vs veh, CREB1 / RFU, DNAJC13 / Fold change vs veh, DNAJC13 / RFU, GNAQ / Fold change vs veh, GNAQ / RFU, CDK5R1 / Fold change vs veh, CDK5R1 / RFU, ZRANB3 / Fold change vs veh, ZRANB3 / RFU, CUL4A / Fold change vs veh, CUL4A / RFU, CCNY / Fold change vs veh, CCNY / RFU, UFL1 / Fold change vs veh, UFL1 / RFU, COG3 / Fold change vs veh, COG3 / RFU, DIAPH2 / Fold change vs veh, DIAPH2 / RFU, SKA2 / Fold change vs veh, SKA2 / RFU, AFF3 / Fold change vs veh, AFF3 / RFU, LMF1 / Fold change vs veh, LMF1 / RFU, IPO11 / Fold change vs veh, IPO11 / RFU, DFFB / Fold change vs veh, DFFB / RFU, FOXP1 / Fold change vs veh, FOXP1 / RFU, CARD8 / Fold change vs veh, CARD8 / RFU, STRN3 / Fold change vs veh, STRN3 / RFU, ADK / Fold change vs veh, ADK / RFU, RASSF2 / Fold change vs veh, RASSF2 / RFU, WIPF1 / Fold change vs veh, WIPF1 / RFU, LARP1B / Fold change vs veh, LARP1B / RFU, RASA1 / Fold change vs veh, RASA1 / RFU, RB1 / Fold change vs veh, RB1 / RFU, PPFIA1 / Fold change vs veh, PPFIA1 / RFU, MAT2A / Fold change vs veh, MAT2A / RFU, CCT5 / Fold change vs veh, CCT5 / RFU, WDR92 / Fold change vs veh, WDR92 / RFU, CUX1 / Fold change vs veh, CUX1 / RFU, TTC7A / Fold change vs veh, TTC7A / RFU, TMEM135 / Fold change vs veh, TMEM135 / RFU, DEPTOR / Fold change vs veh, DEPTOR / RFU, CPM / Fold change vs veh, CPM / RFU, DNAJB6 / Fold change vs veh, DNAJB6 / RFU, CACNA2D3 / Fold change vs veh, CACNA2D3 / RFU, DTX4 / Fold change vs veh, DTX4 / RFU, TFCP2 / Fold change vs veh, TFCP2 / RFU, GMCL1 /// GMCL1P1 / Fold change vs veh, GMCL1 /// GMCL1P1 / RFU, AEBP2 / Fold change vs veh, AEBP2 / RFU, SNHG1 /// SNORD22 /// SNORD25 /// SNORD26 /// SNORD27 /// SNORD28 /// SNORD29 /// SNORD31 / Fold change vs veh, SNHG1 /// SNORD22 /// SNORD25 /// SNORD26 /// SNORD27 /// SNORD28 /// SNORD29 /// SNORD31 / Fold change (Aza/veh), C12orf56 (ProbeSet 11735607_a_at) / Fold change (ACY-1035/veh), C12orf56 (ProbeSet 11735607_a_at) / Fold change (Aza/veh), FGFR1OP (ProbeSet 11751329_s_at) / Fold change (ACY-1035/veh), FGFR1OP (ProbeSet 11751329_s_at) / Fold change (Aza/veh), VPS36 (ProbeSet 11739960_a_at) / Fold change (ACY-1035/veh), VPS36 (ProbeSet 11739960_a_at) / RFU SYPL1 (11715823_x_at) / Fold change /veh SYPL1 (11715823_x_at) / RFU IGFBP7 (11715501_s_at) / Fold change /veh IGFBP7 (11715501_s_at) / RFU REEP3 (11722064_at) / Fold change /veh REEP3 (11722064_at) / RFU IGLL1 (11728026_x_at) / Fold change /veh IGLL1 (11728026_x_at): dose or concentration left out as unconfirmed
Conditions: ProbeSet 11752001_a_at; LIST D

SMILES: Nc1ncn([C@@H]2O[C@H](CO)[C@@H](O)[C@H]2O)c(=O)n1 [azacitidine]
- RFU, CUL4A: 406.78 RFU
